# In PMC6963541, “Synthesis and Biological Evaluation of Lipophilic Nucleoside Analogues as Inhibitors of Aminoacyl-tRNA Synthetases” (Antibiotics, 2019):
# Molecular target: T1, E. coli IleRS (Escherichia coli, UniProt P00956)
# T1 construct: gene ileS; purified recombinant E. coli IleRS
# Assay: radiolabel aminoacyl transfer assay ([…]-Ile to tRNA, TCA precipitation)
# Type: biochemical
# Settings: 10 nM IleRS, 50 µM 14C-isoleucine, 2 mg/mL tRNA, 500 µM ATP, 10 mM MgCl2, pH 7.5, 37 °C, 10 min preincubation; dose-response curve not determined
# T1 sequence (P00956 2-938): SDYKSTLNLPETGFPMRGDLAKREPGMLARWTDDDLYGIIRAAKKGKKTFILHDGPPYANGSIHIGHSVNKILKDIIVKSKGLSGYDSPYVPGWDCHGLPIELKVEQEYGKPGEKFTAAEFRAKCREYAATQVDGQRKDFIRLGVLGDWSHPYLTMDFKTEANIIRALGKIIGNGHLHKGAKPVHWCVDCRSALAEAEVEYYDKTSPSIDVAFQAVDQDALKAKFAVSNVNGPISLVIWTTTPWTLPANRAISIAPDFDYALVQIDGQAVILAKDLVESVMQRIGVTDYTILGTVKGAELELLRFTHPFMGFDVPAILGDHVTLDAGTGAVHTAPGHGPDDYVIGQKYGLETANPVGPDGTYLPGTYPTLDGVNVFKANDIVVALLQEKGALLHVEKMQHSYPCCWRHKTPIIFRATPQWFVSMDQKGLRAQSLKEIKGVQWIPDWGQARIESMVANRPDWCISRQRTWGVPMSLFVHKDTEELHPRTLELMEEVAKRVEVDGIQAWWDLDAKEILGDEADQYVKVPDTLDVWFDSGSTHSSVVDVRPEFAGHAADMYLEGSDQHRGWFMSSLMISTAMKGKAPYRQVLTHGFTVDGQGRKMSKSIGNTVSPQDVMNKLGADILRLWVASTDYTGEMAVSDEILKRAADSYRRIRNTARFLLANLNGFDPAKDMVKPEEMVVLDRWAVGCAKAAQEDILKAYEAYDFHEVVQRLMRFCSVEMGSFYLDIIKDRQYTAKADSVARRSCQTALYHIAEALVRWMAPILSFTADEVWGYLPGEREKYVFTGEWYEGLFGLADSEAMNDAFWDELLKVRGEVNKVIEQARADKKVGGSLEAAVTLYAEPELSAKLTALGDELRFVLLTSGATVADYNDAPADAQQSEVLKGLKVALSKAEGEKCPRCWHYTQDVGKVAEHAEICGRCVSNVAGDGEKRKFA
row,Compound,relative activity
1,"CCCCCCCCCCCCNc1ncnc2c1ncn2[C@@H]1O[C@H](COS(=O)(=O)NC(=O)[C@@H](N)[C@@H](C)CC)[C@@H](O)[C@H]1O [6c, 5′-O-(N-L-isoleucyl)-sulfamoyl-N^6-dodecyl-adenosine]",the dodecyl derivative 6c was active in submicromolar range
2,"CCCCCCCCCCCCCCCCCCNc1ncnc2c1ncn2[C@@H]1O[C@H](COS(=O)(=O)NC(=O)[C@@H](N)[C@@H](C)CC)[C@@H](O)[C@H]1O [6d, 5′-O-(N-L-isoleucyl)-sulfamoyl-N^6-octadecyl-adenosine]",the octadecyl compound 6d was found to be active only in the micromolar range

# Molecular target: T1, E. coli IleRS
# Assay: as above
# Type: biochemical
# Settings: not given
row,Compound,IC50
1,"CC[C@H](C)[C@H](N)C(=O)NS(=O)(=O)OC[C@H]1O[C@@H](n2cnc3c(NC)ncnc32)[C@H](O)[C@@H]1O [6a, 5′-O-(N-L-isoleucyl)-sulfamoyl-N^6-methyl-adenosine]",13.9 ± 1 nM
2,"CCCCCCCCNc1ncnc2c1ncn2[C@@H]1O[C@H](COS(=O)(=O)NC(=O)[C@@H](N)[C@@H](C)CC)[C@@H](O)[C@H]1O [6b, 5′-O-(N-L-isoleucyl)-sulfamoyl-N^6-octyl-adenosine]",42.8 ± 1 nM
3,"CC[C@H](C)[C@H](N)C(=O)NS(=O)(=O)OC[C@H]1O[C@@H](n2cnc3c(Nc4ccccc4)ncnc32)[C@H](O)[C@@H]1O [6e, 5′-O-(N-L-isoleucyl)-sulfamoyl-N^6-phenyl-adenosine]",10.5 ± 1 nM
4,"CC[C@H](C)[C@H](N)C(=O)NS(=O)(=O)OC[C@H]1O[C@@H](n2cnc3c(OC)ncnc32)[C@H](O)[C@@H]1O [6f, 5′-O-(N-L-isoleucyl)-sulfamoyl-6-O-methyl-purine riboside]",4.9 ± 1.1 nM
